Test results from PubChem BioAssay (NCI).
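Exposure lasted 48 hours, with cells grown in 96-well plates and compounds tested at five concentrations. TGI: total growth inhibition.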

Tests used:
Test in all cases: inhibition of tumour cell growth, NCI panel, 48 h
[1] = tested on: IGROV1 ovarian
[2] = tested on: NCI-H226 lung
[3] = tested on: EKVX NSCLC
[4] = tested on: UACC-62 melanoma
[5] = tested on: HOP-92 NSCLC
[6] = tested on: CCRF-CEM leukemia
[7] = tested on: RXF 393 renal
[8] = tested on: M14 melanoma
[9] = tested on: NCI-H522 lung
[10] = tested on: BT-549 breast
[11] = tested on: HOP-62 NSCLC
[12] = tested on: OVCAR-4 ovarian
[13] = tested on: SNB-75 CNS
[14] = tested on: SN12C renal
[15] = tested on: MDA-MB-435
[16] = tested on: UO-31 renal
[17] = tested on: HS 578T breast
[18] = tested on: SK-MEL-28 melanoma
[19] = tested on: T-47D breast
[20] = tested on: HT29 colon
[21] = tested on: COLO 205 colon
[22] = tested on: SK-MEL-2 melanoma
[23] = tested on: CAKI-1 renal
[24] = tested on: SNB-19 CNS
[25] = tested on: ACHN renal
[26] = tested on: MOLT-4 leukemia
[27] = tested on: A498 renal
[28] = tested on: 786-0 renal
[29] = tested on: UACC-257 melanoma
[30] = tested on: A549 NSCLC
[31] = tested on: NCI-H460 lung
[32] = tested on: SW-620 colon
[33] = tested on: DU-145 prostate
[34] = tested on: SF-295 CNS
[35] = tested on: OVCAR-5 ovarian
[36] = tested on: PC-3 prostate
[37] = tested on: MDA-N
[38] = tested on: HCT-15 colon
[39] = tested on: LOX IMVI melanoma
[40] = tested on: SK-MEL-5 melanoma
[41] = tested on: HCT-116 colon
[42] = tested on: MALME-3M melanoma
[43] = tested on: OVCAR-8 ovarian
[44] = tested on: MCF7 breast
[45] = tested on: SF-268 CNS
[46] = tested on: U251 CNS
[47] = tested on: SF-539 CNS
[48] = tested on: TK-10 renal
[49] = tested on: SK-OV-3 ovarian
[50] = tested on: NCI-H23 lung
[51] = tested on: NCI/ADR-RES ovarian
[52] = tested on: OVCAR-3 ovarian
[53] = tested on: KM12 colon

Measured: TGI

CCCCCCCCCCCCCCCCCCNc1ccn(C2OC(COP(=O)(O)OCC3CCC(n4cnc5c(=O)[nH]cnc54)O3)C(O)C2O)c(=O)n1 (stereo not drawn)
> 100 µM: [1] | [2] | [3] | [4] | [5] | [6] | [7] | [8] | [9] | [10] | [11] | [12] | [13] | [14] | [15] | [16] | [17] | [18] | [19] | [20] | [21] | [22] | [23] | [24] | [25] | [26] | [27] | [28] | [29] | [30] | [31] | [32] | [33] | [34] | [35] | [37] | [38] | [39] | [40] | [41] | [42] | [43] | [44] | [45] | [46] | [47] | [48] | [49] | [50] | [51] | [52] | [53]
47.6 µM: [36]
